# In patent publication US7897592B2, “HIV integrase inhibitors” (priority 2005, dated 2011):
# pIC50: −log10 of the molar value.
# Target: T1, HIV-integrase (recombinant integrase) (Human immunodeficiency virus type 1 group M subtype B, UniProt P12497)
# T1 construct: Recombinant integrase (0.26 ng) was incubated with the beads
# Test: HIV-Integrase Inhibition Activity (SPA bead strand-transfer assay)
# Assay type: biochemical
# Conditions: biotin labeled substrate DNA on SPA beads, P33 labeled target DNA, read-out: Activity (IC50 against HIV-integrase)
# Method: HIV-Integrase Inhibition Activity. To evaluate in-vitro activity against HIV-integrase, 5 pmole of biotin labeled substrate DNA was bound to 100 μg of Streptavidin coated PVT SPA beads (Amersham Pharmacia Biotech). Recombinant integrase (0.26 ng) was incubated with the beads for 90 min at 37° C. Unbound enzyme was removed by washing the complex followed by addition of inhibitors and 0.1 fmol of P33 labeled target DNA. The reaction was stopped by adding EDTA to a final concentration of 10 mM. Samples were counted in TopCountNXT (Packard) and the CPM was used as a measure of integration. The reaction condition was as described in A. Engelman and R. Craigie, J. Virol. 69, 5908-5911 (1995). The sequences of substrate and target DNA were described in Nucleic Acid Research 22, 1121-1122 (1994). Activity equal to A refers to a compound having IC50=0.002 to 0.10 μM while B and C denote compounds having IC50=0.1 to 1.0 μM and IC50≧1.0 μM respectively.
row,Compound,pIC50
1,"O=C(NCc1ccc(F)cc1)c1nc2n(c(=O)c1O)CCCS(=O)(=O)C21CCCC1 [Example 25, Spiro[cyclopentane-1,10′(4′H)-[6H]pyrimido[2,1-c][1,4]thiazepine]-2′-carboxamide, N-[(4-fluorophenyl)methyl]-7′,8′-dihydro-3′-hydroxy-4′-oxo-, 9′,9′-dioxide]",7.00 to 8.70
2,"O=C(NCc1ccc(F)cc1)c1nc2n(c(=O)c1O)CCS(=O)(=O)C21CCCC1 [Example 12, Spiro[cyclopentane-1,9′(4′H)-pyrimido[2,1-c][1,4]thiazine]-2′-carboxamide, N-[(4-fluorophenyl)methyl]-6′,7′-dihydro-3′-hydroxy-4′-oxo-, 8′,8′-dioxide]",7.00 to 8.70
3,"O=C(NCc1ccc(F)cc1-n1cncn1)c1nc2n(c(=O)c1O)CCS(=O)(=O)C21CCOCC1 [Example 17, Spiro[4H-pyran-4,9′(4′H)-pyrimido[2,1-c][1,4]thiazine]-2′-carboxamide, N-[[4-fluoro-2-(1H-1,2,4-triazol-1-yl)phenyl]methyl]-2,3,5,6,6′,7′-hexahydro-3′-hydroxy-4′-oxo-, 8′,8′-dioxide]",7.00 to 8.70
